Data as given in patent US10723705B2, “Heterocyclic compounds and uses thereof” (Incyte Corporation, priority 2015, dated 2020).

biological target: Human recombinant Histone Deacetylase 8 (HDAC8) (Homo sapiens (Human), UniProt Q9BY41); test: HDAC8 Enzymatic Assay (HDAC-Glo I/II luminescence); format: biochemical; settings: HDAC8; read-out: IC50
Summary of the method: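 Human recombinant HDAC8 (1.5 nM final) preincubated with compound for 30 min, then reacted with 50 μM Boc-GAK(Ac)-aminoluciferin plus trypsin-containing developer for 15 min at room temperature, pH 8.0, 0.5% DMSO. Luminescence read-out; IC50 from percent control activity versus log concentration.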

Sequence of Human recombinant Histone Deacetylase 8 (HDAC8) (Q9BY41 whole entry): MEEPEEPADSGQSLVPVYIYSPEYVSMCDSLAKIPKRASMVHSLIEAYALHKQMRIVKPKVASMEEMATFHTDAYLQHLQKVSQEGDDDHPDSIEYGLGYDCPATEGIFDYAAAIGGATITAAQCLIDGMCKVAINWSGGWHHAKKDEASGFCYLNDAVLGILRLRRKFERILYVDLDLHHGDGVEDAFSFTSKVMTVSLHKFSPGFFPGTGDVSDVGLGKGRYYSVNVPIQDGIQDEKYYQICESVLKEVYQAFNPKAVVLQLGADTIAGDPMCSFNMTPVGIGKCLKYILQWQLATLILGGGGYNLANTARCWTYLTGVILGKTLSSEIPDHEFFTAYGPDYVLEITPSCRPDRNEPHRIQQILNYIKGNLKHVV

IC50 | SMILES
717 nM | CC1CCN(c2cccc3nn(C(Cc4ccccc4)C(=O)NO)cc23)CC1 (centres unmarked) [Compound I-0145, N-hydroxy-2-(4-(4-methylpiperidin-1-yl)-2H-indazol-2-yl)-phenylpropanamide]
1170 nM | O=C(NO)C(Cc1ccccc1)n1cc2cccc(C(=O)N3CCOCC3)c2n1 (centres unmarked) [Compound I-0173, N-hydroxy-2-[7-(morpholin-4-ylcarbonyl)-2H-indazol-2-yl]-3-phenylpropanamide]

same assay, conditions: class symbols, Table 14; read-out: HDAC8 IC50

SMILES | IC50
CNC(=O)c1ccc(-c2nccc3c(C#CC4CC4)n(C(Cc4ccccc4)C(=O)NO)nc23)cc1 (centres unmarked) [Compound I-0141, 4-(3-(cyclopropylethynyl)-2-(1-(hydroxyamino)-1-oxo-3-phenylpropan-2-yl)-2H-pyrazolo[3,4-c]pyridin-7-yl)-N-methylbenzamide] | ≤ 50 nM
CC(=O)N1CCN(c2cncc(-c3ccc4cnn(C(Cc5ccccc5)C(=O)NO)c4c3)c2)CC1 (centres unmarked) [Compound I-0144, 2-(6-(5-(4-acetylpiperazin-1-yl)pyridin-3-yl)-1H-indazol-1-yl)-N-hydroxy-3-phenylpropanamide] | 50 to 200 nM
COCc1ccc(-c2cccc3nn(C(Cc4ccccc4)C(=O)NO)cc23)cc1 (centres unmarked) [Compound I-0147, N-hydroxy-2-(4-(4-(methoxymeth-yl)phenyl)-2H-indazol-2-yl)-3-phenylpropanamide] | 200 to 500 nM
CN1CCN(c2ccc(-c3cccc4nn(C(Cc5ccccc5)C(=O)NO)cc34)cc2)CC1 (centres unmarked) [Compound I-0148, N-hydroxy-2-(4-(4-(4-methylpiperazin-1-yl)phenyl)-2H-indazol-2-yl)-3-phenylpropanamide] | 50 to 200 nM
CN1CCN(c2ccc(-c3cccc4nn(C(Cc5ccccc5)C(=O)NO)cc34)cn2)CC1 (centres unmarked) [Compound I-0149, N-hydroxy-2-(4-(6-(4-methylpiperazin-1-yl)pyridin-3-yl)-2H-indazol-2-yl)-3-phenylpropanamide] | 50 to 200 nM
CN1CCN(c2ccc(-c3ccn4c(C(Cc5ccccc5)C(=O)NO)cnc4c3)cc2)CC1 (centres unmarked) [Compound I-0151, N-hydroxy-2-(7-(4-(4-methylpiperazin-1-yl)phenyl)imidazo[1,2-a]pyridin-3-yl)-3-phenylpropanamide] | > 500 nM
CN1CCN(c2ccc(-c3ccn4c(C(Cc5ccccc5)C(=O)NO)cnc4c3)cn2)CC1 (centres unmarked) [Compound I-0152, N-hydroxy-2-(7-(6-(4-methylpiperazin-1-yl)pyridin-3-yl)imidazo[1,2-a]pyridin-3-yl)-3-phenylpropanamide] | 200 to 500 nM
O=C(NO)C(Cc1ccccc1)n1ncc2cc(C3CCC(N4CCCC4)CC3)ccc21 (centres unmarked) [Compound I-0153, N-hydroxy-3-phenyl-2-(5-(4-(pyrrolidin-1-yl)cyclohexyl)-1H-indazol-1-yl)propanamide] | 50 to 200 nM
O=C(NO)C(Cc1ccccc1)n1nc2c(-c3cccnc3)cccc2c1C#CC1CC1 (centres unmarked) [Compound I-0155, 2-(3-(cyclopropylethynyl)-7-(pyridin-3-yl)-2H-indazol-2-yl)-N-hydroxy-3-phenylpropanamide] | ≤ 50 nM
O=C(NO)C(Cc1ccccc1)n1nc2c(-c3cncnc3)cccc2c1C#CC1CC1 (centres unmarked) [Compound I-0156, 2-(3-(cyclopropylethynyl)-7-(pyrimidin-5-yl)-2H-indazol-2-yl)-N-hydroxy-3-phenylpropanamide] | ≤ 50 nM
NC(=O)c1cccc(-c2cccc3c(C#CC4CC4)n(C(Cc4ccccc4)C(=O)NO)nc23)c1 (centres unmarked) [Compound I-0157, 3-(3-(cyclopropylethynyl)-2-(1-(hydroxyamino)-1-oxo-3-phenylpropan-2-yl)-2H-indazol-7-yl)benzamide] | ≤ 50 nM
CNC(=O)c1cccc(-c2cccc3c(C#CC4CC4)n(C(Cc4ccccc4)C(=O)NO)nc23)c1 (centres unmarked) [Compound I-0158, 3-(3-(cyclopropylethynyl)-2-(1-(hydroxyamino)-1-oxo-3-phenylpropan-2-yl)-2H-indazol-7-yl)-N-methylbenzamide] | ≤ 50 nM
Cc1cccc2c(C#CC3CC3)n(C(Cc3ccccc3)C(=O)NO)nc12 (centres unmarked) [Compound I-0161, 2-(3-(cyclopropylethynyl)-7-methyl-2H-indazol-2-yl)-N-hydroxy-3-phenylpropanamide] | ≤ 50 nM
O=C(NO)C(Cc1ccccc1)c1cnc2c(-c3ccncc3)cccn12 (centres unmarked) [Compound I-0162, N-hydroxy-3-phenyl-2-(8-(pyridin-4-yl)imidazo[1,2-a]pyridin-3-yl)propanamide] | 200 to 500 nM
O=C(NO)C(Cc1ccccc1)c1cnc2c(-c3cncnc3)cccn12 (centres unmarked) [Compound I-0164, N-hydroxy-3-phenyl-2-(8-pyrimidin-5-ylimidazo[1,2-a]pyridin-3-yl)propanamide] | > 500 nM
COCCn1cc(-c2cccc3c(C#CC4CC4)n(C(Cc4ccccc4)C(=O)NO)nc23)c(C)n1 (centres unmarked) [Compound I-0165, 2-(3-(cyclopropylethynyl)-7-(1-(2-methoxyethyl)-3-methyl-1H-pyrazol-4-yl)-2H-indazol-2-yl)-N-hydroxy-3-phenylpropanamide] | ≤ 50 nM
NC(=O)c1ccc(-c2cccn3c(C(Cc4ccccc4)C(=O)NO)cnc23)cc1 (centres unmarked) [Compound I-0167, 4-(3-(1-(hydroxyamino)-1-oxo-3-phenylpropan-2-yl)imidazo[1,2-a]pyridin-8-yl)benzamide] | 200 to 500 nM
CN(C)C(=O)c1ccc(-c2cccn3c(C(Cc4ccccc4)C(=O)NO)cnc23)cc1 (centres unmarked) [Compound I-0168, 4-(3-(1-(hydroxyamino)-1-oxo-3-phenylpropan-2-yl)imidazo[1,2-a]pyridin-8-yl)-N,N-dimethylbenzamide] | > 500 nM
O=C(NO)C(Cc1ccccc1)c1cnc2c(C3CC3)cccn12 (centres unmarked) [Compound I-0170, 2-(8-cyclopropylimidazo[1,2-a]pyridin-3-yl)-N-hydroxy-3-phenylpropanamide] | > 500 nM
Cc1cccn2c(C(Cc3ccccc3)C(=O)NO)cnc12 (centres unmarked) [Compound I-0171, N-hydroxy-2-(8-methylimidazo[1,2-a]pyridin-3-yl)-3-phenylpropanamide] | 200 to 500 nM
O=C(NO)C(Cc1ccccc1)n1cc2cccc(C(=O)N3CCC4(CC3)COC4)c2n1 (centres unmarked) [Compound I-0174, 2-(7-(2-oxa-7-azaspiro[3.5]nonane-7-carbonyl)-2H-indazol-2-yl)-N-hydroxy-3-phenylpropanamide] | > 500 nM
O=C(NO)C(Cc1ccccc1)n1cc2cccc(C(=O)N3CCC4(CCOCC4)CC3)c2n1 (centres unmarked) [Compound I-0175, 2-(7-(3-oxa-9-azaspiro[5.5]undecane-9-carbonyl)-2H-indazol-2-yl)-N-hydroxy-3-phenylpropanamide] | > 500 nM

More lines, now with the values ahead:

IC50 | SMILES
≤ 50 nM | NC(=O)c1ccc(-c2nccc3c(C#CC4CC4)n(C(Cc4ccccc4)C(=O)NO)nc23)cc1 (centres unmarked) [Compound I-0140, 4-(3-(cyclopropylethynyl)-2-(1-(hydroxyamino)-1-oxo-3-phenylpropan-2-yl)-2H-pyrazolo[3,4-c]pyridin-7-yl)benzamide]
≤ 50 nM | CN(C)C(=O)c1ccc(-c2nccc3c(C#CC4CC4)n(C(Cc4ccccc4)C(=O)NO)nc23)cc1 (centres unmarked) [Compound I-0142, 4-(3-(cyclopropylethynyl)-2-(1-(hydroxyamino)-1-oxo-3-phenylpropan-2-yl)-2H-pyrazolo[3,4-c]pyridin-7-yl)-N,N-dimethylbenzamide]
> 500 nM | O=C(NO)C(Cc1ccccc1)n1ncc2ccc(-c3cnn(CCN4CCOCC4)c3)cc21 (centres unmarked) [Compound I-0143, N-hydroxy-2-(6-(1-(2-morpholinoethyl)-1H-pyrazol-4-yl)-1H-indazol-1-yl)-3-phenylpropanamide]
200 to 500 nM | CC(C)Oc1ccc(-c2cccc3nn(C(Cc4ccccc4)C(=O)NO)cc23)cn1 (centres unmarked) [Compound I-0146, N-hydroxy-2-(4-(6-isopropoxypyridin-3-yl)-2H-indazol-2-yl)-3-phenylpropanamide]
> 500 nM | COCc1ccc(-c2ccn3c(C(Cc4ccccc4)C(=O)NO)cnc3c2)cc1 (centres unmarked) [Compound I-0150, N-hydroxy-2-(7-(4-(methoxymethyl)phenyl)imidazo[1,2-a]pyridin-3-yl)-3-phenylpropanamide]
≤ 50 nM | O=C(NO)C(Cc1ccccc1)n1nc2c(-c3ccncc3)cccc2c1C#CC1CC1 (centres unmarked) [Compound I-0154, 2-(3-(cyclopropylethynyl)-7-(pyridin-4-yl)-2H-indazol-2-yl)-N-hydroxy-3-phenylpropanamide]
≤ 50 nM | CN(C)C(=O)c1cccc(-c2cccc3c(C#CC4CC4)n(C(Cc4ccccc4)C(=O)NO)nc23)c1 (centres unmarked) [Compound I-0159, 3-(3-(cyclopropylethynyl)-2-(1-(hydroxyamino)-1-oxo-3-phenylpropan-2-yl)-2H-indazol-7-yl)-N,N-dimethylbenzamide]
≤ 50 nM | O=C(NO)C(Cc1ccccc1)n1nc2c(C3CC3)cccc2c1C#CC1CC1 (centres unmarked) [Compound I-0160, 2-(7-cyclopropyl-3-(cyclopropylethynyl)-2H-indazol-2-yl)-N-hydroxy-3-phenylpropanamide]
> 500 nM | O=C(NO)C(Cc1ccccc1)c1cnc2c(-c3cccnc3)cccn12 (centres unmarked) [Compound I-0163, N-hydroxy-3-phenyl-2-(8-(pyridin-3-yl)imidazo[1,2-a]pyridin-3-yl)propanamide]
≤ 50 nM | Cc1n[nH]cc1-c1cccc2c(C#CC3CC3)n(C(Cc3ccccc3)C(=O)NO)nc12 (centres unmarked) [Compound I-0166, 2-(3-(cyclopropylethynyl)-7-(3-methyl-1H-pyrazol-4-yl)-2H-indazol-2-yl)-N-hydroxy-3-phenylpropanamide]
200 to 500 nM | NC(=O)c1cccc(-c2cccn3c(C(Cc4ccccc4)C(=O)NO)cnc23)c1 (centres unmarked) [Compound I-0169, 3-(3-(1-(hydroxyamino)-1-oxo-3-phenylpropan-2-yl)imidazo[1,2-a]pyridin-8-yl)benzamide]
200 to 500 nM | COC(=O)C(Cc1ccccc1)n1cc2cccc(C(=O)N3CCC(F)(F)CC3)c2n1 (centres unmarked) [Compound I-0172, methyl 2-(7-(4,4-difluoropiperidine-1-carbonyl)-2H-indazol-2-yl)-3-phenylpropanoate]
> 500 nM | O=C(NO)C(Cc1ccccc1)n1cc2cccc(C(=O)N3CCOCC3)c2n1 (centres unmarked) [Compound I-0173, N-hydroxy-2-[7-(morpholin-4-ylcarbonyl)-2H-indazol-2-yl]-3-phenylpropanamide]
50 to 200 nM | O=C(NC1CCOCC1)c1cccc2cn(C(Cc3ccccc3)C(=O)NO)nc12 (centres unmarked) [Compound I-0176, 2-(1-(hydroxyamino)-1-oxo-3-phenylpropan-2-yl)-N-(tetrahydro-2H-pyran-4-yl)-2H-indazole-7-carboxamide]
